Assay results taken from patent US20240091317A1, “USE OF GLP-2 ANALOGUES IN PATIENTS WITH RENAL INSUFFICIENCY” (Zealand Pharma A/S, priority 2020, published 2024).

How the values were obtained:
[1] = in particular moderate or severe renal impairment, or ESRD; cited from earlier work
[2] = in vivo; cited from earlier work
[3] = Phase 1 trial: PK of a single subcutaneous dose of 10 mg glepaglutide in subjects with severe renal impairment/ESRD vs normal renal function; type: in vivo, human
Protocol: The study was designed as a two-stage design, open-label, multi-center, non-randomized trial evaluating the PK of a single, subcutaneous dose of 10 mg glepaglutide in subjects with varying degrees of renal function. The renal function was calculated by the estimated glomerular filtration rate (eGFR) according to the Modification of Diet in Renal Disease (MDRD) equation.
Sixteen Caucasian subjects were enrolled, 4 with end stage renal disease (ESRD) not on dialysis (eGFR<15 mL/min), 4 with severe renal impairment (eGFR<30 mL/min) and 8 matching controls with normal renal function (eGFR>90 mL/min) (Table 1). Demographics, except eGFR, was similar across groups (Table 1).
Glepaglutide (ZP1848, 10 mg) was provided in a single-use vial containing 1 mL (an extractable volume of 0.5 mL) of a clear, colourless solution for subcutaneous injection, with a concentration of 20 mg/mL glepaglutide.
PK-blood samples were collected over a 14 day period following a single dose of 10 mg glepaglutide in the abdomen. The PK-samples were analyzed for glepaglutide, ZP2469 and ZP2711 using a GLP-validated LC/MS/MS assay.
The primary PK parameters were area under the curve between dose and last measurable concentration (AUCt), extrapolated to infinity (AUCinf) and calculated from 0 to 168 hours (AUC0-168) and the maximum plasma concentration (Cmax), which were computed for glepaglutide, ZP2469, ZP2711. A constructed analyte “glepaglutide-total” (glepaglutide+ZP2469+ZP2711) was used for the primary endpoint, and analysed using a non-compartmental approach.

CC[C@H](C)[C@H](NC(=O)[C@H](Cc1ccccc1)NC(=O)[C@H](CC(=O)O)NC(=O)[C@H](CCCNC(=N)N)NC(=O)[C@H](C)NC(=O)[C@H](C)NC(=O)[C@H](CC(C)C)NC(=O)[C@H](CC(N)=O)NC(=O)[C@H](CC(=O)O)NC(=O)[C@H](CC(C)C)NC(=O)[C@@H](NC(=O)[C@@H](NC(=O)[C@H](CC(N)=O)NC(=O)[C@H](CCSC)NC(=O)[C@H](CCC(=O)O)NC(=O)[C@H](CC(=O)O)NC(=O)[C@H](CO)NC(=O)[C@H](Cc1ccccc1)NC(=O)[C@H](CO)NC(=O)CNC(=O)[C@H](CC(=O)O)NC(=O)CNC(=O)[C@@H](N)Cc1c[nH]cn1)[C@@H](C)O)[C@@H](C)CC)C(=O)N[C@@H](CC(N)=O)C(=O)N[C@@H](Cc1c[nH]c2ccccc12)C(=O)N[C@@H](CC(C)C)C(=O)N[C@H](C(=O)N[C@@H](CCC(N)=O)C(=O)N[C@H](C(=O)N[C@@H](CCCCN)C(=O)N[C@H](C(=O)N[C@H](C(=O)N[C@@H](CC(=O)O)C(=O)O)[C@@H](C)O)[C@@H](C)CC)[C@@H](C)O)[C@@H](C)CC [teduglutide]
Clearance in subjects with renal dysfunction [1]: impaired

GLP-2 [3-33]: truncated GLP-2 [3-33] (DGSFSDEMNTILDNLAARDFINWLIQTKITD; Glucagon-like peptide 2; UniProt P01275 148-178, looked up, fragment)
Half-life in humans [2]: 27 min

H-HGEGTFSSELATILDALAARDFIAWLIATKITDKKKKKK-NH2 [ZP1848]
Clearance in patients with renal impairment ([3]; human, in vivo): cleared normally
Difference in total exposure (AUC0-168h) and peak plasma concentrations (Cmax), severe renal impairment/ESRD vs normal renal function ([3]; single SC dose): no clinically relevant difference
Difference in primary PK parameters (AUCt, AUCinf, AUC0-168, Cmax), severe renal impairment and ESRD vs healthy matched subjects ([3]; single SC dose 10 mg glepaglutide): no statistically significant differences

Hy-His-Ala-Asp-Gly-Ser-Phe-Ser-Asp-Glu-Met-Asn-Thr-Ile-Leu-Asp-Asn-Leu-Ala-Ala-Arg-Asp-Phe-Ile-Asn-Trp-Leu-Ile-Gln-Thr-Lys-Ile-Thr-Asp-OH [GLP-2 [1-33]]
Half-life in humans [2]: around 7 minutes
